In patent EP4685153A1 (priority 2023, dated 2024):
Residues, ends and D or L forms follow the SMILES beside them. *: point of attachment. Succinyl(4-O-cholesteryl) = CC(C)CCC[C@@H](C)[C@H]1CC[C@H]2[C@@H]3CC=C4C[C@@H](OC(=O)CCC(=O)*)CC[C@]4(C)[C@H]3CC[C@]12C

Test system: SARS-CoV-2 D614G mutant strain
Conditions: 48 h

Compound	IC50 [nM]
CC[C@H](C)[C@H](NC(=O)[C@H](CCCCN)NC(=O)[C@H](CCCCN)NC(=O)[C@H](CCC(=O)O)NC(=O)[C@H](CC(C)C)NC(=O)[C@H](CCC(=O)O)NC(=O)[C@H](CCC(=O)O)NC(=O)[C@H](CC(C)C)NC(=O)[C@H](CCC(=O)O)NC(=O)[C@H](CCCCN)NC(=O)[C@H](CCC(=O)O)NC(=O)[C@H](Cc1ccc(O)cc1)NC(=O)[C@H](CCC(=O)O)NC(C)=O)C(=O)N[C@@H](CCC(=O)O)C(=O)N[C@@H](CCC(=O)O)C(=O)N[C@@H](CC(C)C)C(=O)N[C@@H](CC(C)C)C(=O)N[C@@H](CCCCN)C(=O)N[C@@H](CCCCN)C(=O)N[C@@H](C)C(=O)N[C@@H](CCC(=O)O)C(=O)N[C@@H](CCC(=O)O)C(=O)N[C@@H](CCC(N)=O)C(=O)N[C@@H](CCC(N)=O)C(=O)N[C@@H](CCCCN)C(=O)N[C@@H](CCCCN)C(=O)N[C@@H](CC(N)=O)C(=O)N[C@@H](CCC(=O)O)C(=O)N[C@@H](C)C(=O)N[C@@H](C)C(=O)N[C@@H](C)C(=O)N[C@@H](CCCCN)C(=O)N[C@@H](CCCCNC(=O)CCC(=O)O[C@H]1CC[C@@]2(C)C(=CC[C@H]3[C@@H]4CC[C@H]([C@H](C)CCCC(C)C)[C@@]4(C)CC[C@@H]32)C1)C(N)=O [LP-128] (Ac-EYEKELEELEKKIEELLKKAEEQQKKNEAAAKK(Succinyl(4-O-cholesteryl))-NH2)	25.1
CC[C@H](C)[C@H](NC(=O)[C@H](CCCCN)NC(=O)[C@H](CCCCN)NC(=O)[C@H](CCC(=O)O)NC(=O)[C@H](CC(C)C)NC(=O)[C@H](CCC(=O)O)NC(=O)[C@H](CCC(=O)O)NC(=O)[C@H](CC(C)C)NC(=O)[C@H](CCC(=O)O)NC(=O)[C@H](CCCCN)NC(=O)[C@H](CCC(=O)O)NC(=O)[C@H](Cc1ccc(O)cc1)NC(=O)[C@H](CCC(=O)O)NC(=O)[C@H](CCC(=O)O)NC(=O)[C@H](Cc1ccc(O)cc1)NC(=O)[C@H](CCC(=O)O)NC(C)=O)C(=O)N[C@@H](CCC(=O)O)C(=O)N[C@@H](CCC(=O)O)C(=O)N[C@@H](CC(C)C)C(=O)N[C@@H](CC(C)C)C(=O)N[C@@H](CCCCN)C(=O)N[C@@H](CCCCN)C(=O)N[C@@H](C)C(=O)N[C@@H](CCC(=O)O)C(=O)N[C@@H](CCC(=O)O)C(=O)N[C@@H](CCC(N)=O)C(=O)N[C@@H](CCC(N)=O)C(=O)N[C@@H](CCCCN)C(=O)N[C@@H](CCCCN)C(=O)N[C@@H](CC(N)=O)C(=O)N[C@@H](CCC(=O)O)C(=O)N[C@@H](C)C(=O)N[C@@H](C)C(=O)N[C@@H](C)C(=O)N[C@@H](CCCCN)C(=O)N[C@@H](CCCCNC(=O)CCC(=O)O[C@H]1CC[C@@]2(C)C(=CC[C@H]3[C@@H]4CC[C@H]([C@H](C)CCCC(C)C)[C@@]4(C)CC[C@@H]32)C1)C(N)=O [LP-127] (Ac-EYEEYEKELEELEKKIEELLKKAEEQQKKNEAAAKK(Succinyl(4-O-cholesteryl))-NH2)	27.4
